Laboratory results: ChEMBL document CHEMBL2311258, “Manzamenones L-N, new dimeric fatty-acid derivatives from an Okinawan marine sponge Plakortis sp” (Bioorg Med Chem Lett, 2013)
Values after ≈ are worked out from the molar mass of the structure shown.

Experiments:
[1] = tested on: Trichophyton mentagrophytes; assay: Antifungal activity against Trichophyton mentagrophytes; format: functional, organism-based
Aspergillus niger = assay: Antifungal activity against Aspergillus niger; format: functional, organism-based
Bacillus subtilis = assay: Antibacterial activity against Bacillus subtilis; format: functional
Candida albicans = assay: Antifungal activity against Candida albicans; format: functional, organism-based
Staphylococcus aureus = assay: Antibacterial activity against Staphylococcus aureus; format: functional
Micrococcus luteus = assay: Antibacterial activity against Micrococcus luteus; format: functional
Escherichia coli = assay: Antibacterial activity against Escherichia coli; format: functional
Cryptococcus neoformans = assay: Antifungal activity against Cryptococcus neoformans; format: functional, organism-based

| IC50 [1] [µg/mL] | IC50 (Aspergillus niger) [µg/mL] | MIC (Bacillus subtilis) [µg/mL] | IC50 (Candida albicans) [µg/mL] | MIC (Staphylococcus aureus) [µg/mL] | MIC (Micrococcus luteus) [µg/mL] | MIC (Escherichia coli) [µg/mL] | IC50 (Cryptococcus neoformans) [µg/mL] | Structure (SMILES) |
| --- | --- | --- | --- | --- | --- | --- | --- | --- |
| > 32 | > 32 | > 32 | 32 (≈ 42.2 µM) | 16 (≈ 21.1 µM) | > 32 | 32 (≈ 42.2 µM) | 8 (≈ 10.5 µM) | CCCCCCCCCCCCCCCCC1=C[C@H](C(=O)O)[C@H]2C(=O)C(C(=O)OC)=C(CCCCCCCCCCCCCCCC)[C@@]2(O)[C@H]1C(=O)OC |
| > 32 | > 32 | > 32 | > 32 | > 32 | > 32 | > 32 | > 32 | CCCCCCCCCCCCCCCCC1=C[C@H](C(=O)OC)[C@H]2C(=O)C(C(=O)OC)=C(CCCCCCCCCCCCCCCC)[C@@]2(O)[C@H]1C(=O)OC (racemic) |
| > 32 | > 32 | > 32 | 32 (≈ 42.3 µM) | > 32 | > 32 | 32 (≈ 42.3 µM) | 4 (≈ 5.28 µM) | CCCCCCCCCCCCCCCCC1=C(C(=O)OC)C2=C(C(=O)[C@H](C(=O)OC)[C@H]2CCCCCCCCCCCCCCCC)C(C(=O)OC)C1 (some centres undefined) [MANZAMENONE N] |
